#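 GI50: concentration for 50% inhibition of growth. TGI marks complete inhibition of growth.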
# Columns and labels:
# Assay in all cases: NCI anticancer screen, dose series, 384-well format
# [1] = system: 786-0 renal
# [2] = system: A498 renal
# [3] = system: A549 NSCLC
# [4] = system: ACHN renal
# [5] = system: BT-549 breast
# [6] = system: CAKI-1 renal
# [7] = system: CCRF-CEM leukemia
# [8] = system: COLO 205 colon
# [9] = system: DU-145 prostate
# [10] = system: EKVX NSCLC
# [11] = system: HCC-2998 colon
# [12] = system: HCT-116 colon
# [13] = system: HCT-15 colon
# [14] = system: HL-60(TB) leukemia
# [15] = system: HOP-62 NSCLC
# [16] = system: HOP-92 NSCLC
# [17] = system: HS 578T breast
# [18] = system: HT29 colon
# [19] = system: IGROV1 ovarian
# [20] = system: K-562 leukemia
# [21] = system: KM12 colon
# [22] = system: LOX IMVI melanoma
# [23] = system: M14 melanoma
# [24] = system: MALME-3M melanoma
# [25] = system: MCF7 breast
# [26] = system: MDA-MB-231 breast
# [27] = system: MDA-MB-435 melanoma
# [28] = system: MDA-MB-468 breast
# [29] = system: MOLT-4 leukemia
# [30] = system: NCI-H226 lung
# [31] = system: NCI-H23 lung
# [32] = system: NCI-H322M lung
# [33] = system: NCI-H460 NSCLC
# [34] = system: NCI-H522 lung
# [35] = system: NCI/ADR-RES ovarian
# [36] = system: OVCAR-3 ovarian
# [37] = system: OVCAR-4 ovarian
# [38] = system: OVCAR-5 ovarian
# [39] = system: OVCAR-8 ovarian
# [40] = system: PC-3 prostate
# [41] = system: RPMI-8226 leukemia
# [42] = system: RXF 393 renal
# [43] = system: SK-MEL-2 melanoma
# [44] = system: SK-MEL-28 melanoma
# [45] = system: SK-MEL-5 melanoma
# [46] = system: SK-OV-3 ovarian
# [47] = system: SN12C renal
# [48] = system: SR leukemia
# [49] = system: SW-620 colon
# [50] = system: T-47D breast
# [51] = system: TK-10 renal
# [52] = system: U251 glioblastoma
# [53] = system: UACC-257 melanoma
# [54] = system: UACC-62 melanoma
# [55] = system: UO-31 renal
structure (smiles),measurement,setting,value
CO[C@@]12[C@H](COC(N)=O)C3=C(C(=O)C(C)=C(N)C3=O)N1C[C@@H]1N[C@@H]12,GI50,[1],0.261 µM
same,TGI,[1],3.69 µM
same,GI50,[2],0.179 µM
same,TGI,[2],0.932 µM
same,GI50,[3],0.0929 µM
same,TGI,[3],1.06 µM
same,GI50,[4],0.169 µM
same,TGI,[4],0.844 µM
same,GI50,[5],0.258 µM
same,TGI,[5],1.89 µM
same,GI50,[6],0.226 µM
same,TGI,[6],1.64 µM
same,GI50,[7],0.108 µM
same,TGI,[7],0.257 µM
same,GI50,[8],0.25 µM
same,TGI,[8],1.89 µM
same,GI50,[9],0.0447 µM
same,TGI,[9],0.208 µM
same,GI50,[10],4.52 µM
same,TGI,[10],11.5 µM
same,GI50,[11],0.236 µM
same,TGI,[11],1.38 µM
same,GI50,[12],0.0823 µM
same,TGI,[12],1.36 µM
same,GI50,[13],0.328 µM
same,TGI,[13],2.17 µM
same,GI50,[14],0.0178 µM
same,TGI,[14],0.041 µM
same,GI50,[15],0.0387 µM
same,TGI,[15],0.213 µM
same,GI50,[16],1.85 µM
same,TGI,[16],6.78 µM
same,GI50,[17],3.26 µM
same,TGI,[17],7.5 µM
same,GI50,[18],0.368 µM
same,TGI,[18],2.25 µM
same,GI50,[19],1.03 µM
same,TGI,[19],2.63 µM
same,GI50,[20],0.914 µM
same,TGI,[20],2.83 µM
same,GI50,[21],0.582 µM
same,TGI,[21],3.6 µM
same,GI50,[22],0.159 µM
same,TGI,[22],1.3 µM
same,GI50,[23],0.0974 µM
same,TGI,[23],1.19 µM
same,GI50,[24],0.576 µM
same,TGI,[24],1.96 µM
same,GI50,[25],0.0947 µM
same,TGI,[25],2.87 µM
same,GI50,[26],4.01 µM
same,TGI,[26],10.7 µM
same,GI50,[27],1.71 µM
same,TGI,[27],8.72 µM
same,GI50,[28],0.0718 µM
same,TGI,[28],0.212 µM
same,GI50,[29],0.0168 µM
same,TGI,[29],0.0311 µM
same,GI50,[30],0.553 µM
same,TGI,[30],3.25 µM
same,GI50,[31],0.046 µM
same,TGI,[31],0.162 µM
same,GI50,[32],0.401 µM
same,TGI,[32],1.45 µM
same,TGI,[33],0.11 µM
same,GI50,[34],0.276 µM
same,TGI,[34],1.37 µM
same,GI50,[35],5.8 µM
same,TGI,[35],> 43 µM
same,GI50,[36],1.32 µM
same,TGI,[36],3.77 µM
same,GI50,[37],2.27 µM
same,TGI,[37],5.23 µM
same,GI50,[38],1.12 µM
same,TGI,[38],4.35 µM
same,GI50,[39],0.439 µM
same,TGI,[39],4.6 µM
same,GI50,[40],2.34 µM
same,TGI,[40],9.94 µM
same,GI50,[41],0.161 µM
same,TGI,[41],0.675 µM
same,GI50,[42],1.6 µM
same,TGI,[42],3.19 µM
same,GI50,[43],1.25 µM
same,TGI,[43],2.68 µM
same,GI50,[44],1.24 µM
same,TGI,[44],5.21 µM
same,GI50,[45],0.0405 µM
same,TGI,[45],0.102 µM
same,GI50,[46],0.137 µM
same,TGI,[46],0.77 µM
same,GI50,[47],0.0989 µM
same,TGI,[47],3.16 µM
same,GI50,[48],0.0135 µM
same,TGI,[48],0.0281 µM
same,GI50,[49],0.145 µM
same,TGI,[49],1.85 µM
same,GI50,[50],1.6 µM
same,TGI,[50],11.2 µM
same,GI50,[51],1.72 µM
same,TGI,[51],13.1 µM
same,GI50,[52],0.111 µM
same,TGI,[52],1.5 µM
same,GI50,[53],0.914 µM
same,TGI,[53],2.95 µM
same,GI50,[54],0.1 µM
same,TGI,[54],1.15 µM
same,GI50,[55],1.13 µM
same,TGI,[55],4.71 µM

# Source: PubChem BioAssay (NCI)
